Measured values: patent US8114989B2, “Pyrazolylaminopyrimidine derivatives useful as tyrosine kinase inhibitors” (AstraZeneca AB, priority 2005, dated 2012)

Molecular target: T1, human Trk A kinase (Homo sapiens, UniProt P04629)
T1 construct: HIS; made in house; host or cells: SF9 insect cells
Assay: Trk A Assay (Alphascreen kinase assay)
Assay type: biochemical
Details: 70 μM ATP, PolyEY-biotin substrate, 20 minutes, room temperature, read-out: Trk inhibitory activity IC50
Method: After incubation of the kinase with a biotinylated substrate and adenosine triphosphate (ATP) for 20 minutes at room temperature, the kinase reaction was stopped by the addition of 30 mM ethylenediaminetetraacetic acid (EDTA). The reaction was performed in 384 well microtitre plates and the reaction products were detected with the addition of strepavidin coated Donor Beads and phosphotyrosine-specific antibodies coated Acceptor Beads using the EnVision Multilabel Plate Reader after an overnight incubation at room temperature.

T1 sequence (P04629 442-796): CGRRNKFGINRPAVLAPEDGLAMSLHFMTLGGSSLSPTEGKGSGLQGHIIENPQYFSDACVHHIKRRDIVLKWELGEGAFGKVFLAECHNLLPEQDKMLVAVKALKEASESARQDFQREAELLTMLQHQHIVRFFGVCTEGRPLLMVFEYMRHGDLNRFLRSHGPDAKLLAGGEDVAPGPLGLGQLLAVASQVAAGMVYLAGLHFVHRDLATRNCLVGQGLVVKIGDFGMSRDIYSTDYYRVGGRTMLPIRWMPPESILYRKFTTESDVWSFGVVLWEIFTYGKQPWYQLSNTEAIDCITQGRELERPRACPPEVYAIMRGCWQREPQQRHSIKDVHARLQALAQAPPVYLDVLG

C[C@H](Nc1ncc(F)c(Nc2cc(C3CC3)[nH]n2)n1)c1ccc(F)cn1 [Example 3, (S)-5-Fluoro-N^1-(5-cyclopropyl-1H-pyrazol-3-yl)-N^2-(1-(5-fluoropyridin-2-yl)ethyl)pyrimidine-2,4-diamine]
IC50: 0.01 µM
